Where “and” joins values, the source holds several entries; their conditions need not be identical. Equal values may be shown once. Inconclusive results and toxic doses are left out. The calls were made as follows: active = survival T/C of 150% or more; inactive = T/C below 125% in these data. Square brackets hold non-standard residues; d marks the D form. Peptide text beside a SMILES is read from it. ξ: configuration not given here. ξA = CC(N)C(=O)O
Tested on: P388 leukemia ip, CD2F1 mice, survival T/C
Assay: NCI In Vivo Anticancer Drug Screen. Data for tumor model P388 Leukemia (intraperitoneal) in CD2F1 (CDF1) mice
Details: endpoint: median survival time, higher = longer survival
Summary of the method: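 Mice carrying the transplanted tumor received test compound or vehicle. Survival was recorded in each group, and the value is the treated-group measurement divided by that of the vehicle-treated control group.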

[1] = dose: 60.0 mg/kg/injection, schedule: Q01DX005 (ip), vehicle: saline with Tween-80
[2] = dose: 50.0 mg/kg/injection, schedule: Q01DX005 (ip), vehicle: Klucel (hydroxypropylcellulose) (HPC)
[3] = dose: 100.0 mg/kg/injection, schedule: Q01DX005 (ip), vehicle: Klucel (hydroxypropylcellulose) (HPC)
[4] = dose: 200.0 mg/kg/injection, schedule: Q01DX005 (ip), vehicle: Klucel (hydroxypropylcellulose) (HPC)
[5] = dose: 120.0 mg/kg/injection, schedule: Q01DX005 (ip), vehicle: saline with Tween-80
[6] = dose: 240.0 mg/kg/injection, schedule: Q01DX005 (ip), vehicle: saline with Tween-80
[7] = dose: 100.0 mg/kg/injection, schedule: Q01DX009 (ip), vehicle: saline with Tween-80
[8] = dose: 12.5 mg/kg/injection, schedule: Q01DX009 (ip), vehicle: saline with Tween-80
[9] = dose: 25.0 mg/kg/injection, schedule: Q01DX009 (ip), vehicle: saline with Tween-80
[10] = dose: 60.0 mg/kg/injection, schedule: Q01DX005 (ip), vehicle: Klucel (hydroxypropylcellulose) (HPC)
[11] = dose: 120.0 mg/kg/injection, schedule: Q01DX005 (ip), vehicle: Klucel (hydroxypropylcellulose) (HPC)
[12] = dose: 240.0 mg/kg/injection, schedule: Q01DX005 (ip), vehicle: Klucel (hydroxypropylcellulose) (HPC)

Measured: T/C

Fc1cccc(F)n1
inactive: dose: 25.0 mg/kg/injection, schedule: Q04DX003 (ip), vehicle: water 91 % of control | dose: 50.0 mg/kg/injection, schedule: Q04DX003 (ip), vehicle: water 103 % of control | dose: 100.0 mg/kg/injection, schedule: Q04DX003 (ip), vehicle: water 100 % of control | dose: 200.0 mg/kg/injection, schedule: Q04DX003 (ip), vehicle: water 100 % of control | dose: 400.0 mg/kg/injection, schedule: Q04DX003 (ip), vehicle: water 104 % of control

C/C(=N/NS(=O)(=O)c1c(C(C)C)cc(C(C)C)cc1C(C)C)c1cccc2c1OCO2
inactive: dose: 15.0 mg/kg/injection, schedule: Q01DX005 (ip), vehicle: saline with Tween-80 91 % of control | dose: 30.0 mg/kg/injection, schedule: Q01DX005 (ip), vehicle: saline with Tween-80 93 % of control | [1] 87 % of control and 92 % of control

CCCCCC(=O)NCC(=O)NC1C(C)OC(Nc2ncnc3nc[nH]c23)C(O)C1O (stereo unspecified)
inactive: dose: 0.5 mg/kg/injection, schedule: Q01DX009 (ip), vehicle: other 99 % of control | dose: 1.0 mg/kg/injection, schedule: Q01DX009 (ip), vehicle: other 102 % of control | dose: 2.0 mg/kg/injection, schedule: Q01DX009 (ip), vehicle: other 106 % of control | dose: 4.0 mg/kg/injection, schedule: Q01DX009 (ip), vehicle: other 106 % of control | dose: 8.0 mg/kg/injection, schedule: Q01DX009 (ip), vehicle: other 99 % of control

CC(NC(=O)CNC(=O)CNC(=O)CNC(=O)CN)C(=O)O (stereo unspecified) (H-GGGG[ξA]-OH)
inactive: dose: 50.0 mg/kg/injection, schedule: Q01DX005 (ip), vehicle: saline 100 % of control | dose: 100.0 mg/kg/injection, schedule: Q01DX005 (ip), vehicle: saline 103 % of control | dose: 200.0 mg/kg/injection, schedule: Q01DX005 (ip), vehicle: saline 101 % of control

FC1(F)SC(F)(F)S1
inactive: [2] 108 % of control | [3] 108 % of control | [4] 108 % of control

COc1ccc(C2CN(C(=O)c3ccccc3)N=C(c3ccccc3)O2)cc1 (stereo unspecified)
inactive: [2] 100 % of control | [3] 101 % of control | [4] 94 % of control

O=C(Cc1nc2ccc(Cl)cc2[nH]c1=O)c1ccncc1
inactive: [1] 94 % of control | [5] 100 % of control | [6] 119 % of control

CC(C)=CCC/C(C)=C/CC1=C(O)c2ccccc2C(=O)C1=O
inactive: dose: 1.56 mg/kg/injection, schedule: Q01DX009 (ip), vehicle: saline 98 % of control | dose: 3.12 mg/kg/injection, schedule: Q01DX009 (ip), vehicle: saline 100 % of control | dose: 6.25 mg/kg/injection, schedule: Q01DX009 (ip), vehicle: saline 100 % of control | dose: 12.5 mg/kg/injection, schedule: Q01DX009 (ip), vehicle: saline 104 % of control and 94 % of control

OCCN=Cc1ccccc1
inactive: dose: 25.0 mg/kg/injection, schedule: Q01DX009 (ip), vehicle: saline sonified 90 % of control | dose: 50.0 mg/kg/injection, schedule: Q01DX009 (ip), vehicle: saline sonified 104 % of control | dose: 100.0 mg/kg/injection, schedule: Q01DX009 (ip), vehicle: saline sonified 104 % of control

O=C1CC2(CCCC2)CC(=O)N1c1ccc(O)c(CN2CCCCC2)c1
inactive: dose: 50.0 mg/kg/injection, schedule: Q01DX009 (ip), vehicle: Klucel (hydroxypropylcellulose) (HPC) 105 % of control | dose: 100.0 mg/kg/injection, schedule: Q01DX009 (ip), vehicle: Klucel (hydroxypropylcellulose) (HPC) 100 % of control | dose: 200.0 mg/kg/injection, schedule: Q01DX009 (ip), vehicle: Klucel (hydroxypropylcellulose) (HPC) 102 % of control

Cc1ccc(C(=O)C2CC(Br)C(Br)CC2C(=O)c2ccc(C)cc2)cc1 (stereo unspecified)
inactive: [7] 91 % of control | dose: 200.0 mg/kg/injection, schedule: Q01DX009 (ip), vehicle: saline with Tween-80 91 % of control | dose: 400.0 mg/kg/injection, schedule: Q01DX009 (ip), vehicle: saline with Tween-80 87 % of control

O=C(O)C1C2C=CC(C2)C1c1c2ccc(=O)c(O)c-2oc2c(O)c(O)ccc12 (stereo unspecified)
inactive: [1] 102 % of control | [5] 101 % of control | [6] 111 % of control

COC(=O)CCCc1ccc(OC)c(OC)c1
inactive: [8] 100 % of control | [9] 92 % of control | dose: 50.0 mg/kg/injection, schedule: Q01DX009 (ip), vehicle: saline with Tween-80 95 % of control | [7] 89 % of control

COc1cccc2c1C(=O)c1c(O)c3c(c(O)c1C2=O)C[C@@](O)(C(C)=O)C[C@@H]3OC1CC(NC(=O)C(N)CC(C)C)C(O)C(C)O1 (stereo partly specified)
active: dose: 25.0 mg/kg/injection, schedule: Q04DX003 (ip), vehicle: saline 163 % of control and 186 % of control | dose: 50.0 mg/kg/injection, schedule: Q04DX003 (ip), vehicle: saline 163 % of control
inactive: dose: 3.12 mg/kg/injection, schedule: Q04DX003 (ip), vehicle: saline 109 % of control | dose: 6.25 mg/kg/injection, schedule: Q04DX003 (ip), vehicle: saline 119 % of control

CC(=O)Nc1ccc(S(=O)(=O)c2ccc(NC(C)=O)s2)s1
inactive: [2] 98 % of control | [3] 95 % of control | [4] 89 % of control

Cc1c(C)c2c(c3c1OC(C)(C)CC3)CCC(C)(C)O2
inactive: dose: 50.0 mg/kg/injection, schedule: Q01DX009 (ip), vehicle: suspension in saline 88 % of control | dose: 100.0 mg/kg/injection, schedule: Q01DX009 (ip), vehicle: suspension in saline 101 % of control | dose: 200.0 mg/kg/injection, schedule: Q01DX009 (ip), vehicle: suspension in saline 100 % of control

CC1(C)CC(=O)C=C(OS(=O)(=O)C(F)(F)F)C1
inactive: dose: 12.5 mg/kg/injection, schedule: Q01DX009 (ip), vehicle: distilled water + Tween-80 111 % of control | dose: 25.0 mg/kg/injection, schedule: Q01DX009 (ip), vehicle: distilled water + Tween-80 112 % of control | dose: 50.0 mg/kg/injection, schedule: Q01DX009 (ip), vehicle: distilled water + Tween-80 98 % of control

c1ccc(-c2cc(Nc3ccc4c(c3)OCO4)c3cc(C4CCCCC4)ccc3n2)cc1
inactive: [1] 103 % of control | [5] 93 % of control | [6] 89 % of control

NC1[N-]C(C2CCCC[N-]2)CC2C(Cl)CCCC12.O=[N+]([O-])O.O=[N+]([O-])O.[Cu+2] (stereo unspecified)
inactive: dose: 6.25 mg/kg/injection, schedule: Q04DX002 (ip), vehicle: suspension in saline 101 % of control | dose: 12.5 mg/kg/injection, schedule: Q04DX002 (ip), vehicle: suspension in saline 111 % of control

COc1ccc([I+]c2cccc(Cl)c2)cc1Cl
inactive: dose: 0.09 mg/kg/injection, schedule: Q01DX009 (ip), vehicle: saline with Tween-80 106 % of control | dose: 0.18 mg/kg/injection, schedule: Q01DX009 (ip), vehicle: saline with Tween-80 112 % of control | dose: 0.37 mg/kg/injection, schedule: Q01DX009 (ip), vehicle: saline with Tween-80 102 % of control | dose: 0.75 mg/kg/injection, schedule: Q01DX009 (ip), vehicle: saline with Tween-80 122 % of control | [9] 106 % of control and 112 % of control
active: [8] 150 % of control and 159 % of control

CC(=O)n1c(Cl)c(/C=N/NC(N)=S)c2ccccc21
inactive: dose: 100.0 mg/kg/injection, schedule: Q01DX001 (ip), vehicle: saline with Tween-80 86 % of control | dose: 200.0 mg/kg/injection, schedule: Q01DX001 (ip), vehicle: saline with Tween-80 94 % of control | dose: 400.0 mg/kg/injection, schedule: Q01DX001 (ip), vehicle: saline with Tween-80 100 % of control

CCc1c(O)c(C(C)=O)c(S)[nH]c1=O
inactive: [10] 101 % of control and 88 % of control | [11] 102 % of control | [12] 114 % of control and 87 % of control

C#CCOC(=O)Nc1nc2ccc(C)cc2s1
inactive: dose: 6.25 mg/kg/injection, schedule: Q01DX009 (ip), vehicle: Klucel (hydroxypropylcellulose) (HPC) 107 % of control | dose: 12.5 mg/kg/injection, schedule: Q01DX009 (ip), vehicle: Klucel (hydroxypropylcellulose) (HPC) 104 % of control | dose: 25.0 mg/kg/injection, schedule: Q01DX009 (ip), vehicle: Klucel (hydroxypropylcellulose) (HPC) 101 % of control

Nn1cnc2c(nnn2Cc2ccccc2)c1=O
inactive: dose: 100.0 mg/kg/injection, schedule: Q04DX002 (ip), vehicle: saline with Tween-80 104 % of control | dose: 200.0 mg/kg/injection, schedule: Q04DX002 (ip), vehicle: saline with Tween-80 100 % of control

N#CC(C(=O)CCCC(=O)Nc1ccccc1[N+](=O)[O-])c1ccc(Cl)cc1Cl (stereo unspecified)
inactive: [1] 106 % of control | [5] 104 % of control | [6] 101 % of control

C/C(=N\N=C(N)N)c1cnc(N)nc1C
inactive: [10] 98 % of control | [11] 97 % of control | [12] 100 % of control

— PubChem BioAssay AID330 (DTP/NCI, 2004)
